Results taken from the OPERA property sets (Mansouri et al. 2018).

Details: not given

Compound	boiling point	log10 Henry constant (atm·m³/mol)	log10 Koa	log10 Koc (L/kg)	log10 biodegradation half-life (days)	log10 vapour pressure (mmHg)	melting point	ready biodegradability
Cc1cccc(C)c1	139 °C	-2.14	3.78	2.25	1	0.919	-47.8 °C	readily biodegradable
CC1(C)C(=O)N(Br)C(=O)N1Cl							164 °C	
CCC(=O)Nc1ccccc1	222 °C						106 °C	not readily biodegradable
O=C1c2ccccc2C(=O)c2c(O)cccc21						-6.68	194 °C	not readily biodegradable
CCCCCCCCCCCCCCCCCCCCCCCCCCCCCCCCC					2.56	-10.4	72 °C	
CC(C)c1ccccc1Cl	191 °C						-74.4 °C	
FC(F)(F)C(Cl)(Cl)C(Cl)(Cl)C(F)(F)F	131 °C						83.5 °C	
CCCSc1ccccc1	220 °C						-45 °C	
CCCCCC(=O)CC	168 °C					0.301		
CC(C)c1cccs1	153 °C							
Cc1nc([N+](=O)[O-])cn1-c1ccc([N+](=O)[O-])cc1							186 °C	
Cc1ccc(O)c(C)c1C	236 °C						81 °C	
Cc1ccc([N+](=O)[O-])cc1N							106 °C	
OC(c1ccc(F)cc1)(c1cncnc1)c1ccccc1Cl (stereo unspecified)							126 °C	
COc1ccc2ccc(=O)oc2c1CC=C(C)C							83.5 °C	
COC(=O)C[C@@H](C)C(=O)OC	196 °C							
C=CF	-72 °C					4.3	-160 °C	
CCCCCCCCCCCCCCCC(=O)OCCCC							16.9 °C	
COc1cc2c(c(OC)c1OC)-c1ccc(O)c(=O)cc1[C@@H](NC(C)=O)CC2							178 °C	
CCOCCOc1ccccc1	230 °C							
O=c1[nH]c(=O)n([C@H]2C[C@H](O)[C@@H](CO)O2)cc1I							263 °C	
C=C(c1ccccc1)c1ccccc1	277 °C					-1.88	8.2 °C	
CCCCCCCCCCCCCCCCCCCBr						-5.65		

Compound	boiling point	log10 Henry constant (atm·m³/mol)	log10 Koa	log10 Koc (L/kg)	log10 biodegradation half-life (days)	log10 vapour pressure (mmHg)	melting point	ready biodegradability
Fc1c(Cl)c(F)c(Cl)c(F)c1Cl	198 °C							
CCCCOC(C)C	109 °C							
Cc1cn([C@H]2CC[C@@H](CO)O2)c(=O)[nH]c1=O							156 °C	
CCOc1ccc(C)cc1	188 °C							
Oc1ccc2cccc(Cl)c2c1	308 °C						101 °C	
CCSCc1ccccc1OC(=O)NC						-5.15	33.4 °C	
O=C(O)CCC(=O)c1ccc(C2CCCCC2)c(Cl)c1							163 °C	
COC(=O)CCCCl	175 °C							
CCCc1cccc(O)c1	228 °C						26 °C	
Brc1ccc2c(c1)Oc1ccccc1O2						-4.52	90 °C	
N#CCC(=O)c1ccccc1							80.5 °C	
CC(C)C(=O)Cl	92 °C						-90 °C	
CC(C)CCCCO	170 °C							
CCN(CC)C(N)=O							75 °C	
O=C(O)c1cc(F)c(F)cc1F							100 °C	
Nc1ccc(O)c2c1C(=O)c1ccccc1C2=O						-8.52	216 °C	
N#CCNCC#N						-2.47	70 °C	
CCCOC	39.1 °C					2.67		
Ic1ccccc1	188 °C			3.1		0.0253	-31.3 °C	
N[C@H](CCS)C(=O)O (racemic)							226 °C	
OCc1c2ccccc2cc2ccccc12				3.61				
O=C(NC(=O)c1c(F)cccc1F)Nc1ccc(CO/N=C(/c2ccc(Cl)cc2)C2CC2)cc1						-9.39		
CCC(=O)OC(=O)CC	170 °C					0.134	-45 °C	readily biodegradable

Compound	boiling point	log10 Henry constant (atm·m³/mol)	log10 Koa	log10 Koc (L/kg)	log10 biodegradation half-life (days)	log10 vapour pressure (mmHg)	melting point	ready biodegradability
CCCCCCCC	126 °C		3.35		0.954	1.15	-56.8 °C	readily biodegradable
Cc1cccc(NC(=O)c2ccccc2C(=O)O)c1							150 °C	
C#CCOC(=O)[C@@H](C)Oc1ccc(Oc2ncc(Cl)cc2F)cc1						-7.62	59.5 °C	
CN(C)C(CSS(=O)(=O)c1ccccc1)CSS(=O)(=O)c1ccccc1							83.5 °C	
c1ccc(CN2CCCCC2)cc1	245 °C							
OCCSSCCO							26 °C	
CC[Si](Cl)(CC)CC	144 °C					0.83		
N#Cc1cc(Br)c(O)c(Br)c1						-7.33	190 °C	readily biodegradable
O=C(O)CC=Cc1ccccc1	302 °C						87 °C	
C=CCCO	114 °C							
C[NH+](C)CCC(c1ccc(Cl)cc1)c1ccccn1.O=C([O-])/C=C\C(=O)O (stereo unspecified)							132 °C	
CCOS(=O)(=O)Cl	152 °C							
COc1ccc2c(c1O)[C@]13CCN(C)[C@H](C2)[C@@H]1C=CC(=O)C3							152 °C	
CC(C)C(O)C(C)C	139 °C					0.477		
CC(C)C(C)(C)O	118 °C					0.505	-14 °C	
CCC1(C2=CCCCCC2)C(=O)NC(=O)NC1=O							174 °C	
FC(F)(F)c1ccc2c(c1)Nc1ccccc1S2							189 °C	
CC=CC=CCO							30.5 °C	
CCn1cc(C(=O)O)c(=O)c2cc(F)c(N3CCNCC3)cc21							228 °C	
C=Cc1ccc2ccccc2c1							66 °C	
FC(F)(F)C(F)(F)C(Cl)(Cl)Cl	74 °C						-80 °C	
O=C(O)c1cc(O)ccc1O							200 °C	
Oc1ccc(O)c(Br)c1							112 °C	

Compound	boiling point	log10 Henry constant (atm·m³/mol)	log10 Koa	log10 Koc (L/kg)	log10 biodegradation half-life (days)	log10 vapour pressure (mmHg)	melting point	ready biodegradability
CCOP(=O)(OCC)OC(=CCl)c1ccc(Cl)cc1Cl				2.47		-5.12	-20 °C	
CCOC(=O)C(=O)c1ccccc1	256 °C							
CCOC(=O)c1ccccn1	243 °C						1 °C	
C1CN(SSN2CCOCC2)CCO1							124 °C	not readily biodegradable
COC(=O)c1cccc(I)c1	277 °C						54.5 °C	
OC1CCCCCCC1							25.1 °C	
CCCCCCCCC#N	224 °C						-34.2 °C	readily biodegradable
CNC(=O)ON=C(C)SC				1.3		-5.27	78 °C	
NCCCCCCCCCCC(=O)O							191 °C	
CCCC(C)=O	102 °C	-4.08	3.19			1.55	-76.9 °C	
C[C@]12CC[C@@H]3c4ccc(O)cc4CC[C@H]3[C@@H]1CC[C@@H]2O							200 °C	
c1ccc2cc3c(ccc4ccccc43)cc2c1	438 °C	-4.92		5.3	2.46	-6.68		not readily biodegradable
CCCN(C(C)=O)c1ccccc1	268 °C						49 °C	
CC(=O)c1occc1O							100 °C	
OCC(F)(F)C(F)(F)C(F)(F)C(F)(F)C(F)(F)C(F)F								not readily biodegradable
N#Cc1ccccc1Cl	232 °C						46.3 °C	not readily biodegradable
O=C1C(Cl)=C(Nc2ccccc2)C(=O)c2ccccc21							215 °C	
C=C(CC(=O)OCC)C(=O)OCC	228 °C						58.5 °C	
Cc1cccc(C)c1C(=O)O	274 °C						116 °C	
N#CCc1ccccc1F	232 °C							

Same assay, conditions: fish

Compound	log10 BCF	log10 biotransformation half-life (days)
Cc1cccc(C)c1	1.17	
O=C1c2ccccc2C(=O)c2c(O)cccc21	2.25	
c1ccc2cc3c(ccc4ccccc43)cc2c1	2.41	0.02
